Results reported in ChEMBL document CHEMBL1201862, “PubChem BioAssay data set” (2004).
Where a name gives a salt, the structure may show the parent alone. Active and inactive are the calls of the source.

How the values were obtained:
[1] = cells; assay type: functional, cell-based
[2] = alpha-synuclein stem-loop luciferase translation blockers – H4 neuroglioma cells, luminescence, confirmation (AID 1988); assay type: functional, cell-based
[3] = Luminescence Cell-Based Dose Response HTS to Identify Inhibitors of 5'UTR Stem-Loop Driven Prion Protein mRNA Translation in H4 Neuroglioblastoma Cells. [Related pubchem assays: 1827 (Project Summary), 1813 (Primary HTS)]; assay type: functional
[4] = target: T1, Nuclear receptor subfamily 0 group B member 1 (Homo sapiens, UniProt P51843); assay type: functional, cell-based;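 note: HEK293T cells transfected with SF-1 and DAX-1 plus StAR promoter luciferase reporter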
T1 sequence (P51843 whole entry): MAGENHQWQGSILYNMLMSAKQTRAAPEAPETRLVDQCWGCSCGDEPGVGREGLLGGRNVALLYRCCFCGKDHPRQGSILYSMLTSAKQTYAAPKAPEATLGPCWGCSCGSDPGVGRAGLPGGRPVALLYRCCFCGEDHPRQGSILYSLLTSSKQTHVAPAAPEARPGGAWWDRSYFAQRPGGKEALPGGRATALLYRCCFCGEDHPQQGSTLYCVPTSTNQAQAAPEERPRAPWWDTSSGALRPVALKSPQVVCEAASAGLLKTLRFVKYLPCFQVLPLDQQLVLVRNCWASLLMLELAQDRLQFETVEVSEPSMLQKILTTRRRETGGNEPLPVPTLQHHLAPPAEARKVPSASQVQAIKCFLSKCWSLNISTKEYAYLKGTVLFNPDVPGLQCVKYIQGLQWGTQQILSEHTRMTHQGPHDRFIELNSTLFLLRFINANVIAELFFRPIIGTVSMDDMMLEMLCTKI

[5] = target: T2, Sentrin-specific protease 8 (Homo sapiens, UniProt Q96LD8); assay type: functional
T2 sequence (Q96LD8 whole entry): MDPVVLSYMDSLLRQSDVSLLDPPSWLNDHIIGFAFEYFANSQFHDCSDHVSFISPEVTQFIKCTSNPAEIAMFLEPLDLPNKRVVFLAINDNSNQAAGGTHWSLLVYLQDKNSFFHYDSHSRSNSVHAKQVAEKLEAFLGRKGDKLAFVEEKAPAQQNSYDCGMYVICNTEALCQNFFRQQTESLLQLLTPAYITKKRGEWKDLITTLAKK

[6] = target: T3, Mannose-6-phosphate isomerase (Homo sapiens, UniProt P34949); experiment: MPI inhibition at elevated mannose 6-phosphate – biochemical, fluorescence intensity, high mannose 6-phosphate, primary screen (AID 1220)
T3 sequence (P34949 whole entry): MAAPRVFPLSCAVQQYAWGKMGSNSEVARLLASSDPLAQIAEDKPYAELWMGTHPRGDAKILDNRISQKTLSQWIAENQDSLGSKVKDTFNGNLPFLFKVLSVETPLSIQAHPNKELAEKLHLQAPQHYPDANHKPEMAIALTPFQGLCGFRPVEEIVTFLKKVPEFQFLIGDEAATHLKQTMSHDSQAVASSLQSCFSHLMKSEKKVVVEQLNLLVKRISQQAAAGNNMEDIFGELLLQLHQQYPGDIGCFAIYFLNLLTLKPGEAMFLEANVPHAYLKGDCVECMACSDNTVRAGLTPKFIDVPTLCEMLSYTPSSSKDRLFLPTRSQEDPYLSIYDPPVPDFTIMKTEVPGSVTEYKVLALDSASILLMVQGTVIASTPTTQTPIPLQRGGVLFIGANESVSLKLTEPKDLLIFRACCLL

[7] = target: T2, Sentrin-specific protease 8; assay type: functional; remark: listed apart in the source
[8] = target: Mu-type opioid receptor (Homo sapiens, UniProt P35372); assay type: functional, cell-based;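 note: U2OS cells with beta-arrestin recruitment to OPRM1 by beta-gal complementation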
Sequence of Mu-type opioid receptor (P35372 whole entry): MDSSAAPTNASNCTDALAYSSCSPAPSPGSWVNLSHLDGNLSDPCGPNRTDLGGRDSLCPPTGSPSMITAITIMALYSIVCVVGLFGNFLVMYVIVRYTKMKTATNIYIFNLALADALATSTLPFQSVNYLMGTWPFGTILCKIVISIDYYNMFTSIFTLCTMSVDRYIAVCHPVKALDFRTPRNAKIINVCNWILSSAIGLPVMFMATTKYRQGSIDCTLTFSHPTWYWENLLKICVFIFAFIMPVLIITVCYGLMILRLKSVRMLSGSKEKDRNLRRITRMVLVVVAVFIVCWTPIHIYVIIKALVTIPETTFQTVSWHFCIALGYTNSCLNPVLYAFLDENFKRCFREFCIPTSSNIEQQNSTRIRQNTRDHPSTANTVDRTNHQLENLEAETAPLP

[9] = target: Large T antigen (Simian virus 40, UniProt P03070); assay type: functional, Betapolyomavirus macacae;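 note: Confirmatory-stage PubChem screen for compounds that inhibit SV40 T antigen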
Sequence of Large T antigen (P03070 whole entry): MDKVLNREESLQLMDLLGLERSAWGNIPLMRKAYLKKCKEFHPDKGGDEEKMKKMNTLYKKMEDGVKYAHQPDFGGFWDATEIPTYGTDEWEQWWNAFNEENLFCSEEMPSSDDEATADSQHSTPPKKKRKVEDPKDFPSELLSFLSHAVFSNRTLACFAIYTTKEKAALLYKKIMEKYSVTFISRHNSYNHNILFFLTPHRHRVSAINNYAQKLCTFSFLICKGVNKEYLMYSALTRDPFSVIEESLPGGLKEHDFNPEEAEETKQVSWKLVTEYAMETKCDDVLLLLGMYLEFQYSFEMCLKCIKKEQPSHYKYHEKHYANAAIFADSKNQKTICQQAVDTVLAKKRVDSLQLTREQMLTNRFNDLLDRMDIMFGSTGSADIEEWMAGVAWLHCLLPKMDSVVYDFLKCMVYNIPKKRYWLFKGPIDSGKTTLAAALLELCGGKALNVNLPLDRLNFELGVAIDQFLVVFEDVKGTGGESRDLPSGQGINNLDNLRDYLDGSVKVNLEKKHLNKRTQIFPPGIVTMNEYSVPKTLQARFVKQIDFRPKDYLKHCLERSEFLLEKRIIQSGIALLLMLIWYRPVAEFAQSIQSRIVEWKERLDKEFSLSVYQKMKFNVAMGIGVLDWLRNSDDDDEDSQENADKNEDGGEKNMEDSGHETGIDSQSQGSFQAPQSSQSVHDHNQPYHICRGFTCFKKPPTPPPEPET

[10] = target: SWI/SNF-related matrix-associated actin-dependent regulator of chromatin subfamily A member 2 (Homo sapiens, UniProt P51531); experiment: Luminescence-based cell-based high throughput dose response assay to identify activators of the function of SWI/SNF related, matrix associated, actin dependent regulator of chromatin, subfamily a, member 2 (SMARCA2, BRM).; assay type: functional
Sequence of SWI/SNF-related matrix-associated actin-dependent regulator of chromatin subfamily A member 2 (P51531 whole entry): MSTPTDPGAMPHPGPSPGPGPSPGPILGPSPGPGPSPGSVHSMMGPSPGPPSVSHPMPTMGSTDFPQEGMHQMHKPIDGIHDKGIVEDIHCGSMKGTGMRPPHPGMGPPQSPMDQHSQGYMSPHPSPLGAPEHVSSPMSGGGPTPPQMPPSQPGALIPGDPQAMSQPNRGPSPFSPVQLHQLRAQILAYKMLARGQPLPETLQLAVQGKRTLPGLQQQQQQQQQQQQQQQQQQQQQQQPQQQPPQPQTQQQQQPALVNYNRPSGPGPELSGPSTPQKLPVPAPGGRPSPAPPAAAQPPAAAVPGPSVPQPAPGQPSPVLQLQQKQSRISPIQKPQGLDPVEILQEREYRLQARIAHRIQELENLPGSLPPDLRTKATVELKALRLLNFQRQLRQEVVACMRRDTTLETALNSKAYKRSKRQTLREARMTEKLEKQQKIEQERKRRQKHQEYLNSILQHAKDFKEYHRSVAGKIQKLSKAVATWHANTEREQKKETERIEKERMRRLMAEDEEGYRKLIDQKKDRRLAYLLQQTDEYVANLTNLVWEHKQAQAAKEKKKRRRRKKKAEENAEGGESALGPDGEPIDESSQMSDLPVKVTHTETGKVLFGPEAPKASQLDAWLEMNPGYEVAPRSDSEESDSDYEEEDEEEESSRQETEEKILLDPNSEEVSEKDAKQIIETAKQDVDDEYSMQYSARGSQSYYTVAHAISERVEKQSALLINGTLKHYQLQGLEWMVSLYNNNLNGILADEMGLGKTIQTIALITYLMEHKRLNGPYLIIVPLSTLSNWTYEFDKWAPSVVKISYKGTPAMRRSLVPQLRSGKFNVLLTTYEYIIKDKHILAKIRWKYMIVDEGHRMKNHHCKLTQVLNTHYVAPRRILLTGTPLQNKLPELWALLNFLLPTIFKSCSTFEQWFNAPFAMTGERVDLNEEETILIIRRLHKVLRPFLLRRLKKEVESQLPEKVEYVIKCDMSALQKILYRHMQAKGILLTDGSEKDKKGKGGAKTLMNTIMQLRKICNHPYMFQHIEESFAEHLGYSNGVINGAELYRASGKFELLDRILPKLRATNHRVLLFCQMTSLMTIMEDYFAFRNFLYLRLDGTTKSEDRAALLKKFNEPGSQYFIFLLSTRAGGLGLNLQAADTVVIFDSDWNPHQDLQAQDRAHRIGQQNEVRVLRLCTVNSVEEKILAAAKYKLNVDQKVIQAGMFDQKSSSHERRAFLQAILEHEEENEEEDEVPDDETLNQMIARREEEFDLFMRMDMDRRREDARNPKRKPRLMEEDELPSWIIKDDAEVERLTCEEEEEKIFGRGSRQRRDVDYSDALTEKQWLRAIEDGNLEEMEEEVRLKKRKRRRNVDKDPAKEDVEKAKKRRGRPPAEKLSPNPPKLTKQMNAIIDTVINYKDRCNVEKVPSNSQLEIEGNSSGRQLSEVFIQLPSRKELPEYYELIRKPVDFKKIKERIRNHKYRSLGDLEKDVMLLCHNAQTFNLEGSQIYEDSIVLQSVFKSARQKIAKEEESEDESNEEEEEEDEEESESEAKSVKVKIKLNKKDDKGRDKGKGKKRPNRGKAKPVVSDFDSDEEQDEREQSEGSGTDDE

[11] = Counterscreen for activators of the function of SWI/SNF related, matrix associated, actin dependent regulator of chromatin, subfamily a, member 2 (SMARCA2, BRM): Luminescence-based cell-based high throughput dose response assay to identify non-selective compounds using the VP16 reporter assay.; assay type: functional
[12] = viability of HCT116 lacking mutant beta-catenin – cell-based, human colon tumor, dose response (AID 1045); assay type: functional;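 note: HCT116 colon tumor cells with beta catenin knocked out; cells exposed to compound for 60 hours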
[13] = target: ADP-ribosylation factor GTPase-activating protein 1 (Rattus norvegicus, UniProt Q62848); experiment: Fluorescence polarization-based biochemical high throughput dose response screening assay to identify inhibitors of ADP-ribosylation factor GTPase activating protein 1 (ARFGAP1).; assay type: functional
Sequence of ADP-ribosylation factor GTPase-activating protein 1 (Q62848 whole entry): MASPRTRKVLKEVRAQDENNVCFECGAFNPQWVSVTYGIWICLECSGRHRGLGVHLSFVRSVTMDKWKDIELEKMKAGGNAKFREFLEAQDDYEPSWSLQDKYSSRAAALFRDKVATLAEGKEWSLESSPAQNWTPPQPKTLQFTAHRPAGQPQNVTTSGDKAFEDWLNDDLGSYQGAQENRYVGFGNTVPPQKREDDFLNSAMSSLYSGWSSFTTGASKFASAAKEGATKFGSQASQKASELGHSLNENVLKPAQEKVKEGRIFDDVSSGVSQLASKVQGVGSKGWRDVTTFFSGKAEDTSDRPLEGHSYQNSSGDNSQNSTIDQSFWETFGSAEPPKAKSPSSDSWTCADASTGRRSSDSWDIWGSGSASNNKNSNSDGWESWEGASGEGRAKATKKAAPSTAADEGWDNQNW

[14] = viability of PTEN-deleted HCT116 cells – cell-based, HCT116 PTEN knockout, dose response (AID 1047); assay type: functional;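 note: HCT116 colon tumor cells with PTEN knocked out; cells exposed to compound for 60 hours before readout; potency for loss of cell viability measured by luminescence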
[15] = target: Arf-GAP with SH3 domain, ANK repeat and PH domain-containing protein 1 (Homo sapiens, UniProt Q9ULH1); assay type: functional;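 note: biochemical fluorescence polarization dose–response screen measuring inhibition of ASAP1; ASAP1 GAP domain stimulating GTP hydrolysis by truncated human ARF1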
Sequence of Arf-GAP with SH3 domain, ANK repeat and PH domain-containing protein 1 (Q9ULH1 whole entry, the tested form may be a part): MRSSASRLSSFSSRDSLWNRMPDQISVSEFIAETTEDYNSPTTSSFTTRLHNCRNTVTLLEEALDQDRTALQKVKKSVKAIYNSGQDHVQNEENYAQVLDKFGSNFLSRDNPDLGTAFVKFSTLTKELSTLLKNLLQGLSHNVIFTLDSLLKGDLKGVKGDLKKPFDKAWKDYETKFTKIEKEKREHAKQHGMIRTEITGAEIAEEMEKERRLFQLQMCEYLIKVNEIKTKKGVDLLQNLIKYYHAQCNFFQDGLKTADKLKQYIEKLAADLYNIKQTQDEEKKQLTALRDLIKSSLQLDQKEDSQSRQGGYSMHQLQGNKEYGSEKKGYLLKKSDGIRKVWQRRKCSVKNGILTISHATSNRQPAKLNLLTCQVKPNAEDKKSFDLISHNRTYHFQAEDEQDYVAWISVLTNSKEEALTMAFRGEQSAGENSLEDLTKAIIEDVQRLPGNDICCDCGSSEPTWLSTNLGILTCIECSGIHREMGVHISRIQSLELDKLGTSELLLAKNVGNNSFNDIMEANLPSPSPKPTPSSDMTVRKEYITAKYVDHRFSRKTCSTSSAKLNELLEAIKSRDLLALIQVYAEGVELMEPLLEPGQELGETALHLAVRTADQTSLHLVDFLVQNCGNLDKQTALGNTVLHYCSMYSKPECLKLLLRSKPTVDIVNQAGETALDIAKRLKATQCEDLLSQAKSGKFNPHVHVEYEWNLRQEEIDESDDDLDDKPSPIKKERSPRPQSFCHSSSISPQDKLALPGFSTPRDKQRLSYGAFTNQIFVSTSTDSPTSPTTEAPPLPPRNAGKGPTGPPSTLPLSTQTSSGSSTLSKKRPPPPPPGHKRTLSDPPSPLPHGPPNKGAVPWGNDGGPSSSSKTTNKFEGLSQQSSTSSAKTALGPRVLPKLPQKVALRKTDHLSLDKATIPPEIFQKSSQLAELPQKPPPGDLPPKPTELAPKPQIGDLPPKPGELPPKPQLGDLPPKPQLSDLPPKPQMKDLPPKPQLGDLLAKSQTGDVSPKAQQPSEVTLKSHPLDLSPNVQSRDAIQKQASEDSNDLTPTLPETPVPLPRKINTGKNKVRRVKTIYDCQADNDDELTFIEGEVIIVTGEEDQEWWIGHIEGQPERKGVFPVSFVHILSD

[16] = test system: Streptococcus sp. 'group A'; experiment: Streptococcus pyogenes SK(-)GAS viability under kanamycin – luminescence, BacTiterGlo, confirmation, counter-screen for streptokinase expression inhibitor project, dose response (AID 1900); assay type: functional, organism-based
[17] = test system: Escherichia coli; experiment: microbe, parasite or virus in culture
[18] = test system: Escherichia coli; experiment: microbe, parasite or virus in culture; remark: listed apart in the source
[19] = target: T4, Zinc finger protein mex-5 (Caenorhabditis elegans, UniProt Q9XUB2); experiment: potency of MEX-5 RNA-binding blockers – biochemical, C. elegans, fluorescence polarization, dose response (AID 1960)
T4 sequence (Q9XUB2 whole entry): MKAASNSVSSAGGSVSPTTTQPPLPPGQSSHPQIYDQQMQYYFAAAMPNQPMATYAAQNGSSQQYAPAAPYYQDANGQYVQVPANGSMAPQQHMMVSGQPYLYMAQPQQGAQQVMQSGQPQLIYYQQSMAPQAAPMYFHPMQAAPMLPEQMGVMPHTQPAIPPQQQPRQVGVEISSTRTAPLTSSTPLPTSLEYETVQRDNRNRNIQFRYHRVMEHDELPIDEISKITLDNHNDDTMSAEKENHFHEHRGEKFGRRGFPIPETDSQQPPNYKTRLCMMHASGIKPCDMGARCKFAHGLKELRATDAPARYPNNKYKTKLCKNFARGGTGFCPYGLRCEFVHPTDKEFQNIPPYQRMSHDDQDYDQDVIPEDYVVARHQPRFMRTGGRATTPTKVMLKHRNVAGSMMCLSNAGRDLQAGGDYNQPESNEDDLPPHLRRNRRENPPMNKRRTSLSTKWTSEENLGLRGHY

[20] = target: T5, RNA-binding protein pos-1 (Caenorhabditis elegans, UniProt G5EF15); experiment: disruptors of C. elegans POS-1 RNA interaction – biochemical, fluorescence polarization, dose response (AID 1964);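 note: purified POS-1 fused to maltose binding protein made in E. coli; potency of compounds blocking POS-1 binding to fluorescent RNA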
T5 sequence (G5EF15 whole entry): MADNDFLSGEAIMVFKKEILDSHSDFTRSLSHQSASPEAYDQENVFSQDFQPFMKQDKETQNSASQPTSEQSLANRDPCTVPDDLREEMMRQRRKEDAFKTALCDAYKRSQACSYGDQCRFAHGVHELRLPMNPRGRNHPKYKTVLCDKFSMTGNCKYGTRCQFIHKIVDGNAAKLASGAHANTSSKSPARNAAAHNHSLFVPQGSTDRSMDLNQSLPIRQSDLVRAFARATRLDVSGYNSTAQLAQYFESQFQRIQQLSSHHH

[21] = inhibition of ARNT PAS-B/TACC3 complex formation – biochemical, AlphaScreen, cherry-picked samples, confirmation (AID 651703); assay type: functional, Homo sapiens;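 note: His-tagged ARNT PAS-B domain paired with GST-TACC3 E629A dimer coactivator fragment; potency of inhibitors that break up the complex and lower AlphaScreen signal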
[22] = test system: Streptococcus; experiment: GAS UMAA2166 growth inhibition – luminescence, BacTiterGlo, counter-screen for streptokinase expression inhibitor project, dose response (AID 1915); assay type: functional, organism-based;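 note: potency for reduction of bacterial viability or growth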
[23] = blockers of CRF-binding protein–CRF-R2 complex – cell-based, uHTS hits, 384-well, dose response (AID 651639); assay type: functional, Homo sapiens; details: read-out: IC50_Mean
[24] = target: T6, Corticotropin-releasing factor receptor 2/Corticotropin-releasing factor-binding protein (Homo sapiens, UniProt P24387+Q13324); experiment: activators of CRF receptor 2 with binding protein – uHTS hits, confirmation (AID 602473); assay type: functional; details: read-out: EC50_Mean
T6 sequence (Q13324 whole entry): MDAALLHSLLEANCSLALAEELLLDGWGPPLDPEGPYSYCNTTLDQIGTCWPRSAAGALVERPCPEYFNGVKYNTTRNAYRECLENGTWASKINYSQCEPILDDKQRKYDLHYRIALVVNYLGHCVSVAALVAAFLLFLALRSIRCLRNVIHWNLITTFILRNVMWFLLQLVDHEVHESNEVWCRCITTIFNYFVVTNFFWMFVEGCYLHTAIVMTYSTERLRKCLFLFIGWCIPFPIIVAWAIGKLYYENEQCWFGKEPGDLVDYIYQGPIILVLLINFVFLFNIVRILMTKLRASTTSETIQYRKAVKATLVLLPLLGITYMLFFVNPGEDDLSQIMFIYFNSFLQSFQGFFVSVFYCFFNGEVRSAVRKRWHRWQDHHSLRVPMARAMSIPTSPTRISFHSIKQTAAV
T6 sequence (P24387 whole entry): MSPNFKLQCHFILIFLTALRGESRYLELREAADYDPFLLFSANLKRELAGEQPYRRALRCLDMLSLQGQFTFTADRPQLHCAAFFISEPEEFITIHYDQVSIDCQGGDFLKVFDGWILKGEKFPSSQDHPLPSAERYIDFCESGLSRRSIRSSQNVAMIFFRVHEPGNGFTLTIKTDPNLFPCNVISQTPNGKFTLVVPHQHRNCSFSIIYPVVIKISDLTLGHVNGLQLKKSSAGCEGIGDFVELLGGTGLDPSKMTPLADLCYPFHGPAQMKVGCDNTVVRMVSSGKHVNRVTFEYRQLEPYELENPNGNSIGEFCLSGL

[25] = target: T6, Corticotropin-releasing factor receptor 2/Corticotropin-releasing factor-binding protein; experiment: Dose Response confirmation of uHTS hits for small molecule antagonists of the CRF-binding protein and CRF-R2 receptor complex.; assay type: functional; details: read-out: IC50_Mean
[26] = Luminescence Cell-Based Dose Retest to Confirm Inhibitors of Cancer Stem Cells. [Related pubchem assays (depositor defined):AID2717, AID2721]; assay type: functional; details: Homo sapiens
[27] = NIH3T3 cell viability loss – ATP luminescence, mouse fibroblasts, counter-screen, dose response (AID 2010); assay type: functional, cell-based;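 note: cells exposed to compound for about 90 hours before reading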
[28] = target: T7, Streptokinase A (Streptococcus pyogenes serotype M1, UniProt P10520); experiment: viability-normalized secreted streptokinase activity reduction – plasminogen activation absorbance, OD405, dose response (AID 1914); assay type: functional, Streptococcus pyogenes M1 GAS;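 note: secreted streptokinase activity via plasminogen activation per viability signal from cell pellet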
T7 sequence (P10520 whole entry): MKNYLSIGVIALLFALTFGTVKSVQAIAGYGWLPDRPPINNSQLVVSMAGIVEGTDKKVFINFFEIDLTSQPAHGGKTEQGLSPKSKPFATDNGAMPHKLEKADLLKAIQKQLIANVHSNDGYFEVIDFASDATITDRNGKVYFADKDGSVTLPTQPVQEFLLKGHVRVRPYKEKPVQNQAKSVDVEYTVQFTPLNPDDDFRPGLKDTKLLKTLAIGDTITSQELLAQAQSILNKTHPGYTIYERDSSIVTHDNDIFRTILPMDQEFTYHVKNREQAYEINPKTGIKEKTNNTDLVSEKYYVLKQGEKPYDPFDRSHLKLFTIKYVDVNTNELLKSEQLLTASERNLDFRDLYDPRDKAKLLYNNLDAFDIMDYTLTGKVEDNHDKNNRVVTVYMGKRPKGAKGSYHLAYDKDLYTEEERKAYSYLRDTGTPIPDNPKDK

[29] = general mammalian cell viability loss – inhibitor set, cherry-pick, set 2, cytotoxicity control for miR-122 modulator project, dose response (AID 720697); assay type: functional, cell-based
[30] = Trypanosoma cruzi growth suppression in host cells – NIH3T3 host cells, beta-gal luminescence, confirmation (AID 2044); assay type: functional, cell-based;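 note: intracellular parasites grown in NIH/3T3 mouse fibroblasts as host cells; luminescent beta-galactosidase reporter signal from transgenic T. cruzi replicating inside host cells; inhibitors lower the luminescence signal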

## COc1ccc(C(=O)NCCC2=CCCCC2)cc1
[1]
  IC50: > 67.5 µM (inactive)
[2]
  EC50: 8.69 µM (inconclusive)
[3]
  EC50: 8.58 µM (active)
[4]
  IC50: > 0.278 µM (active)

## NC(=O)c1ccc(/N=C2\C(=O)Nc3ccc([N+](=O)[O-])cc32)cc1
[5]
  IC50: 4.25 µM (active)
[6]
  IC50: 27.5 µM (active)
[7]
  IC50: 3.98 µM (active)

## NCCc1c[nH]c2ccc(O)cc12 [SEROTONIN HYDROCHLORIDE]
[8]
  EC50: 92.4 µM (inactive)
[9]
  IC50: 41.3 µM (active)

## O=C(N/N=C/c1ccc2c(c1)OCO2)c1ccccn1
[1]
  IC50: > 67.5 µM (inactive)
[4]
  IC50: > 67.5 µM (inactive)

## O=C1C(Sc2ccccc2)=C[C@@]2(O)CC[C@@H](O)[C@]1(Sc1ccccc1)[C@H]2O
[10]
  EC50: > 91.3 µM (inactive)
[11]
  EC50: > 91.3 µM (inactive)

## O=C(/C=C\c1cn(-c2ccccc2)nc1-c1ccccc1)Nc1nccs1
[12]
  EC50: 7.96 µM (active)
[13]
  IC50: 32.1 µM (inactive)
[14]
  EC50: 7.09 µM (active)
[15]
  IC50: 26.2 µM (inactive)

## CN(C)[C@@H]1C(=O)C(C(N)=O)=C(O)[C@@]2(O)C(O)=C3C(=O)c4c(O)cccc4[C@@](C)(O)C3[C@H](O)C12 (some centres not stated)
[16]
  EC50: 0.088 µM (active)
[17]
  AC50: < 0.3 µM (active)
[18]
  AC50: 9.92 µM (active)
[19]
  EC50: 20.5 µM (active)
[20]
  EC50: 54.1 µM (active)
[21]
  AC50: 75.2 µM (active)
[22]
  EC50: 0.277 µM (active)

## COc1ccc(/C=C2\CCC/C(=C\c3ccc(OC)c(OC)c3OC)C2=O)c(OC)c1OC
[23]
  IC50: 7.33 µM (active)
[24]
  EC50: > 53 µM (inactive)
[25]
  IC50: 4.04 µM (active)

## C/C(=N\Nc1cc(N2CCCCC2)nc(C)n1)c1ccc(Br)cc1
[26]
  AC50: 5.52 µM (active)
[16]
  EC50: 6.7 µM (active)
[27]
  EC50: > 60 µM (not active)
[28]
  EC50: 46.7 µM (inconclusive)
[29]
  AC50: 5.41 µM (active)
[30]
  EC50: 0.7 µM (active)
[22]
  EC50: > 50 µM (not active)

## CCc1noc(C)c1C(=O)N1CCS/C1=N\c1cccc(Cl)c1C
[23]
  IC50: > 20 µM (inactive)
[24]
  EC50: > 53 µM (inactive)
[25]
  IC50: < 0.368 µM (active)
